Measured values from patent publication US6607890B1, “Mismatch-recognizing molecules” (Japan Science and Technology Corporation, priority 1999, dated 2003).

Columns and labels:
Format in all cases: binding
normal G-C base pair = assay: DNase I footprinting titration on 5′-32P labeled 52-mer double-stranded DNA, normal G-C site; conditions: concentration increased from 0 up to 500 μM, FIG. 1
Experimental: (§1) Accordingly, it was examined whether such a compound having two 1,8-naphthylidien moieties can be incorporated into chains of a nucleic acid by constructing a paring with each mismatched guanine in a case when mismatched base pairing of guanine—guanine exists in a double-stranded nucleic acid. 52-mer double-stranded DNA labeled with 5′-^32P having a GC base pair, a GA mismatched base pair and a GG mismatched base pair in the double-stranded DNA was prepared. The partial sequences of the corresponding parts are illustrated as follows.
(§2) Using this double-stranded DNA, an inhibited position of DNA cleavage by DNase I was analyzed by means of DNase I (DNA hydrolase) footprinting titration in the presence of the compound of the formula (III) at various concentrations.
Cleavage by DNase I (DNA hydrolase) is shown in black and inhibition in a position of the cleavage by DNase is shown in white.
(§3) A double-stranded DNA was prepared by hybridizing 5′-end ^32P labeled 52-mer DNA to form mismatched base pairs with G-G and G-A (refer to the right figures in FIG. 1).
Various concentrations of the compound obtained in example 1 were added to the double-stranded DNA, and analyzed by DNA footprinting using DNase I. […]

G-A mismatched base pair = assay: DNase I footprinting titration on 5′-32P labeled 52-mer double-stranded DNA, G-A mismatched site
Experimental: as §1, §2
(§4) FIG. 2 is a graph showing a relationship between an intensity of cleaved band and a concentration of added naphthyriidine in FIG. 1. […] In FIG. 2, the abscissa indicates concentration (M) of the compound of the formula (III) added. In FIG. 2, black circle (●) in the graph indicates mismatched site of G-G, and black triangle (▴) indicates mismatched site of G-A.
as §3
(§5) Various concentrations of the compound obtained in example 1 were added to the double-stranded DNA, and analyzed by DNA footprinting using DNase I.
(§6) The double-stranded DNA (<4 nM strand concentration) was incubated with the compound obtained in example 1, which was adjusted to various concentrations with tris-HCl buffer (10 mM, pH 7.6) containing NaCl (100 mM) and MgCl2 (5 mM), at 4° C. for 12 hours. 0.2 U DNase I (DNA hydrolase) was added thereto and incubated at 25° C. for […]. DNA was recovered by mans of ethanol precipitation and electrophoresed using a gel containing 12% polyacrylamide and 7M urea.

G-G mismatched base pair = assay: DNase I footprinting titration on 5′-32P labeled 52-mer double-stranded DNA, G-G mismatched site
Experimental: as §1, §2, §4, §3, §5, §6

[1] = calculated from DNase I footprinting titration (FIG. 2)

effect on DNase I cleavage at the normal G-C base pairing (normal G-C base pair): cleavage by DNase I occurs | concentration from which the inhibitory action against cleavage initiates in the G-A mismatched site (G-A mismatched base pair; DNase I cleavage, FIG. 2): approximately 10^−6 M | inhibition of the cleavage in the G-A mismatched site (G-A mismatched base pair; at around (500 μM) compound): about 90% | binding constant to the mismatched base G-A [Ka (GAmis)] (G-A mismatched base pair; [1]): 16300 M⁻¹ | concentration at which the cleavage in the G-G mismatched site is inhibited almost completely (G-G mismatched base pair; DNase I cleavage, FIG. 2): ≥ 10^−5 M | ratio of both binding constants [(Ka (GGmis))/(Ka (GAmis))] (G-G mismatched base pair; G-G versus G-A mismatch): 696 | binding constant to the mismatched base G-G [Ka (GGmis)] (G-G mismatched base pair; [1]): 1.13e+07 M⁻¹
Structure (SMILES): Cc1ccc2ccc(NC(=O)CCNCCC(=O)Nc3ccc4ccc(C)nc4n3)nc2n1 [formula (III), dinaphthylidinamide]
